Assay results published in paper PMC9855371, “Antiparasitic Activity of Fluorophenyl-Substituted Pyrimido[1,2-a]benzimidazoles” (Biomedicines, 2023).

Legend:
Toxoplasma gondii = Toxoplasma gondii tachyzoite (RH strain) growth in infected Vero cells, infection index; type: cell-based; conditions: after 72 h, means of n = 3, SD ± 15%, read-out: EC50 (T. gondii)
Method: Serial passages of cells of the Vero cell line (ATCC® CCL81™, Manassas, VA, USA) were applied for the cultivation of T. gondii tachyzoites of the RH strain (a gift from Dr. Saeed El-Ashram, State Key Laboratory for Agrobiotechnology, China Agricultural University, Beijing, China). Vero cells were cultured by using complete RPMI 1640 medium with heat-inactivated 10% FBS in a humidified 5% CO2 atmosphere, at 37 °C. The 96-well plates (5 × 10^3 cells/well in 200 µL RPMI 1640 medium) were used for the cultivation of the Vero cells and then incubated, at 37 °C, and 5% CO2 for one day, followed by removal of medium and washing the cells with PBS. Then, RPMI 1640 medium containing 2% FBS and T. gondii tachyzoites (RH strain) was given to the cells at a ratio of 5 (parasite):1 (Vero cells). After incubation, at 37 °C, and 5% CO2 for 5 h, cells were washed with PBS and then treated as described below.
Control: RPMI 1640 medium containing DMSO (1%)
Experimental: Medium + compounds (dissolved in DMSO) (50, 25, 12.5, 6.25, 3.13, 1.65, and 0.75 µg mL^−1).
After incubation, at 37 °C, and 5% CO2 for 72 h, the cells were washed with PBS, fixed in 10% formalin and stained with 1% toluidine blue. Examination of the cells and determination of the infection index (number of cells infected from 200 cells tested) of T. gondii were carried out with an inverted photomicroscope. The following equation was used for the calculation of the inhibition in %:Inhibition (%) = (I Control − I Experimental)/(I Control) × 100 where “I Control” refers to the infection index of untreated cells and “I Experimental” refers to the infection index of cells treated with test compounds.
Then, effects of test compounds on parasite growth were expressed as EC50 (effective concentration at 50%) values. EC50 values were obtained from three independent experiments.

Vero cells = test: In vitro cytotoxicity MTT assay in Vero cells; type: cell-based; conditions: Chlorocebus sabaeus; after 72 h; Vero cells (African green monkey kidney epithelial cells); means of n = 3, SD ± 15%
Method: MTT assays were carried out for a cytotoxicity evaluation of the test compounds. Briefly, Vero cells were cultured in 96-well plates (5 × 10^3 cells/well/200 µL) for 24 h in RPMI 1640 medium with 10% FBS and 5% CO2, at 37 °C. Cells were washed with PBS, followed by treatment with test compounds for 72 h at varying concentrations (50, 25, 12.5, 6.25, 3.13, 1.65, and 0.75 µg mL^−1) in 10% FBS medium. Cells treated solely with medium in 2% FBS were used as a negative control. The supernatant was discarded, 50 µL RPMI 1640 medium containing 14 µL MTT (5 mg mL^−1) was added, and the cells were incubated for 4 h. The supernatant was removed again, and 150 µL DMSO was added in order to dissolve the formed formazan. A FLUOstar OPTIMA spectrophotometer was applied for colorimetric analysis (λ = 540 nm). The cytotoxicity was expressed by IC50 values (concentration which caused a 50% reduction in viable cells). IC50 values were calculated from three independent experiments.

[1] = test system: Leishmania major promastigotes; test: Leishmania major promastigote viability, MTT assay; type: cell-based; conditions: Leishmania major promastigotes after 72 h, means of n = 3, SD ± 15%
[2] = test system: Leishmania major amastigotes; test: Leishmania major amastigotes in peritoneal macrophages, percentage of infected macrophages (Giemsa); type: cell-based; conditions: Leishmania major amastigotes after 72 h, means of n = 3, SD ± 15%
macrophages = test: Effects of test compounds on macrophages (toxicity); type: cell-based, BALB/c mice; conditions: means of n = 3, SD ± 15%

Row | Compound | EC50 (Toxoplasma gondii) [µM] | IC50 (Vero cells) [µM] | EC50 ([1]; Leishmania major, 72 h) [µM] | EC50 ([2]; Leishmania major, 72 h) [µM] | IC50 (macrophages; Mus musculus, Macrophage) [µM] | melting point | IC50 (macrophages) [µM] | EC50 [1] [µM] | EC50 [2] [µM]
1 | O=C1C(O)=C([C@H]2CC[C@H](c3ccc(Cl)cc3)CC2)C(=O)c2ccccc21 [ATO, atovaquone, reference compound] | 0.07 | 9.5 | – | – | – | – | – | – | –
2 | N#Cc1c(-c2cccc(F)c2)nc2nc3ccccc3n2c1N [Compound 3a, 4-Amino-2-(3-fluorophenyl)pyrimido[1,2-a]benzimidazole-3-carbonitrile] | 35.9 | 38.3 | 35.6 | 28 | 22.4 | > 370 °C (dec.) | – | – | –
3 | N#CC1=C(N)n2c(nc3ccccc32)NC1c1ccccc1F (centres unmarked) [Compound 2c] | 26.9 | 18.3 | 49.8 | 24.9 | 31.4 | – | – | – | –
4 | N#Cc1c(-c2ccc(F)cc2)nc2nc3ccccc3n2c1N [Compound 3d] | 41.9 | 43.5 | 36.9 | 26.1 | 20.1 | – | – | – | –
5 | N#CC1=C(n2cccc2)n2c(nc3ccccc32)NC1c1ccc(F)cc1 (centres unmarked) [Compound 4d, 4-Pyrrolo-2-(4-fluorophenyl)-1,2-dihydropyrimido[1,2-a]benzimidazole-3-carbonitrile] | 34.9 | 41.4 | 32.1 | 51.5 | 47.3 | > 260 °C | – | – | –
6 | COc1cc(C2Nc3nc4ccccc4n3C(N)=C2C#N)cc(Br)c1OC (centres unmarked) [Compound 2e, 4-Amino-2-(3-bromo-4,5-dimethoxyphenyl)-1,2-dihydropyrimido[1,2-a]benzimidazole-3-carbonitrile] | 28.6 | 57.2 | 77.9 | 75.5 | 64 | 282 to 283 °C | 63.8 | – | –
7 | C[C@@H]1[C@H](O)[C@@H](C)/C=C/C=C/C=C/C=C/C=C/C=C/C=C/[C@H](O[C@@H]2O[C@H](C)[C@@H](O)[C@H](N)[C@@H]2O)C[C@@H]2O[C@](O)(C[C@@H](O)C[C@@H](O)[C@H](O)CC[C@@H](O)C[C@@H](O)CC(=O)O[C@H]1C)C[C@H](O)[C@H]2C(=O)O [AmB, Amphotericin B, reference compound] | – | 7.7 | 0.83 | 0.47 | – | – | – | – | –
8 | N#CC1=C(N)n2c(nc3ccccc32)NC1c1cc(F)cc(F)c1 (centres unmarked) [Compound 2b, 4-Amino-2-(3,5-difluorophenyl)-1,2-dihydropyrimido[1,2-a]benzimidazole-3-carbonitrile] | 43.6 | 33.1 | 108 | 22.9 | 28.5 | 279 to 280 °C | – | – | –
9 | N#CC1=C(n2cccc2)n2c(nc3ccccc32)NC1c1cccc(F)c1 (centres unmarked) [Compound 4a, 4-Pyrrolo-2-(3-fluorophenyl)-1,2-dihydropyrimido[1,2-a]benzimidazole-3-carbonitrile] | 33.2 | 34.9 | 20.3 | 50.9 | 41.4 | > 260 °C (dec.) | – | – | –
10 | N#Cc1c(-c2ccccc2F)nc2nc3ccccc3n2c1N [Compound 3c, 4-Amino-2-(2-fluorophenyl)pyrimido[1,2-a]benzimidazole-3-carbonitrile] | 20.8 | 25.7 | 32 | 27 | 21.1 | > 350 °C (dec.) | – | – | –
11 | N#Cc1c(-c2cc(F)cc(F)c2)nc2nc3ccccc3n2c1N [Compound 3b, 4-Amino-2-(3,5-difluorophenyl)pyrimido[1,2-a]benzimidazole-3-carbonitrile] | 2.8 | 22.7 | 13.7 | 29 | 24.3 | > 370 °C (dec.) | – | – | –
12 | N#CC1=C(N)n2c(nc3ccccc32)NC1c1cccc(F)c1 (centres unmarked) [Compound 2a, 4-Amino-2-(3-fluorophenyl)-1,2-dihydropyrimido[1,2-a]benzimidazole-3-carbonitrile] | 4.59 | 4.32 | 0.2 to 0.4 | 0.2 to 0.4 | 0.98 | 216 to 217 °C (dec.) | – | 0.39 | 0.2
13 | N#CC1=C(N)n2c(nc3ccccc32)NC1c1cccnc1 (centres unmarked) [Compound 2f, 4-Amino-2-(3-pyridyl)-1,2-dihydropyrimido[1,2-a]benzimidazole-3-carbonitrile] | 60 | 106 | 53.4 | 116 | 86 | 289 to 290 °C | – | – | –
14 | N#CC1=C(N)n2c(nc3ccccc32)NC1c1ccc(F)cc1 (centres unmarked) [Compound 2d] | 27.8 | 26.9 | 14.4 | 26.9 | 19.3 | – | – | – | –
15 | N#CC1=C(n2cccc2)n2c(nc3ccccc32)NC1c1cc(F)cc(F)c1 (centres unmarked) [Compound 4b, 4-Pyrrolo-2-(3,5-difluorophenyl)-1,2-dihydropyrimido[1,2-a]benzimidazole-3-carbonitrile] | 18.2 | 32.4 | 28.9 | 46.1 | 39.9 | > 240 °C | – | – | –
16 | N#CC1=C(n2cccc2)n2c(nc3ccccc32)NC1c1ccccc1F (centres unmarked) [Compound 4c, 4-Pyrrolo-2-(2-fluorophenyl)-1,2-dihydropyrimido[1,2-a]benzimidazole-3-carbonitrile] | 24.8 | 23.6 | 15.2 | 49.2 | 43.9 | > 240 °C (dec.) | – | – | –
